Laboratory results taken from patent US20230355670A1, “Methods of activating cytotoxic leukocytes using PTP1B and PTPN2 inhibitors” (Monash University, priority 2019, published 2023).

Columns and labels:
[1] = test system: HER-2-E0771 mammary tumour cells; test: Tumour growth of HER-2-E0771 mammary tumours in HER-2 TG mice after adoptive transfer of control or Ptpn2-/- HER-2 CAR T cells, with MSI-1436 treatment; type: in vivo; details: MSI-1436 5 mg/kg intraperitoneally on days 1, 4 and 7 post adoptive transfer of total 5×10^6 control or Ptpn2-/- HER-2 CAR T cells; versus saline; female HER-2 TG mice
Method: HER-2-E0771 mammary tumour cells (2×10^5) were injected into the fourth inguinal mammary fat pads of female HER-2 TG mice. Seven days after tumour injection HER-2 TG mice received total body irradiation (4 Gy) followed by the adoptive transfer of total 5×10^6 HER-2 CAR T cells (=0.8×10^6 viable mCherry^+HER-2 CAR^+CD8^+CD44^hiCD62L^hi T cells) control (ctrl) or Ptpn2^−/− HER-2 CAR CD8 T cells (PTPN2 had been deleted by CRISPR-RNP). HER-2 mice were treated with MSI-1436 (5 mg/kg intraperitoneally) or saline on days 1, 4, and 7 post adoptive transfer and tumour growth was monitored. Significance in was determined using 2-way ANOVA Test; ****p<0.0001.

[2] = test system: HER-2-E0771 mammary tumour cells; test: Tumour growth of HER-2-E0771 mammary tumours in HER-2 TG mice after adoptive transfer of HER-2 CAR T cells, with MSI-1436 treatment; type: in vivo; details: MSI-1436 5 mg/kg intraperitoneally on days 1, 4, 7, 10, 13, 16 and 19 post adoptive transfer of total 20×10^6 HER-2 CAR T cells; versus saline; no IL-2; female HER-2 TG mice
Method: HER-2-E0771 mammary tumour cells (2×10^5) were injected into the fourth inguinal mammary fat pads of female HER-2 TG mice. Seven days after tumour injection HER-2 TG mice received total body irradiation (4 Gy) followed by the adoptive transfer of total 20×10^6 HER-2 CAR T cells (=6×10^6 viable mCherry^+HER2 CAR^+CD8^+CD44^hiCD62L^hi T cells) generated from Ptp1b^fl/fl versus Lck-Cre;Ptp1b^fl/fl splenocytes; mice were not administered IL-2. Mice were treated with PTP1B specific allosteric inhibitor MSI-1436 (5 mg/kg intraperitoneally) or saline on days 1, 4, 7, 10, 13, 16 and 19 post adoptive transfer and tumour growth was monitored. Representative results (means±SEM) from at least two independent experiments are shown. Significance was determined using 2-way ANOVA Test; *p<0.05 ****p<0.0001.
HER-2-E0771 mammary tumour cells (2×10^5) were injected into the fourth inguinal mammary fat pads of female HER-2 TG mice. […] Mice were treated with PTP1B specific allosteric inhibitor MSI-1436 (5 mg/kg intraperitoneally) or saline on days 1, 4, 7, 10, 13, 16 and 19 post adoptive transfer and tumour growth was monitored. […] Significance was determined using 2-way ANOVA Test; *p<0.05, ****p<0.0001.

## CC(C)[C@@H](CC[C@@H](C)[C@H]1CC[C@H]2[C@@H]3[C@H](O)C[C@H]4C[C@@H](NCCCNCCCCNCCCN)CC[C@]4(C)[C@H]3CC[C@]12C)OS(=O)(=O)O [MSI-1436, Trodusquemine]
[1]
  tumour growth (activity of CAR T cells in vivo): ‘supercharges’ CAR T cells in vivo
[2]
  tumour growth (tumour-specific activity of HER2 CAR T cells in vivo): Enhances the Tumour-Specific Activity of HER2 CAR T Cells In Vivo
